Measurements from ChEMBL document CHEMBL1201862, “PubChem BioAssay data set” (2004).
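Cultured in 96-well plates, cells were exposed to test compound for 48 hours across five concentrations. GI50 is the concentration that inhibits growth by half.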 The source made the active and inactive calls. Rule as the data show it: active = GI50 up to about 1.1 µM and inactive = higher.

What was measured:
Assay in all cases: growth of human tumour cells (NCI), 48 h
KM12 = tested on: KM12
CAKI-1 = tested on: CAKI-1
RXF 393 = tested on: RXF 393
SF-539 = tested on: SF-539
RPMI-8226 = tested on: RPMI-8226
K562 = tested on: K562
ACHN = tested on: ACHN
SF-268 = tested on: SF-268
OVCAR-4 = tested on: OVCAR-4
SW-620 = tested on: SW-620
U-251 = tested on: U-251
NCI/ADR-RES = tested on: NCI/ADR-RES
NCI-H226 = tested on: NCI-H226
MDA-MB-435 = tested on: MDA-MB-435
HCC 2998 = tested on: HCC 2998
MOLT-4 = tested on: MOLT-4
A498 = tested on: A498
MCF7 = tested on: MCF7
NCI-H23 = tested on: NCI-H23
TK-10 = tested on: TK-10
SK-OV-3 = tested on: SK-OV-3
SN12C = tested on: SN12C
PC-3 = tested on: PC-3
SNB-75 = tested on: SNB-75
DU-145 = tested on: DU-145
IGROV-1 = tested on: IGROV-1
SK-MEL-28 = tested on: SK-MEL-28
Malme-3M = tested on: Malme-3M
HL-60 = tested on: HL-60
NCI-H460 = tested on: NCI-H460
Hs-578T = tested on: Hs-578T
OVCAR-5 = tested on: OVCAR-5
SF-295 = tested on: SF-295
A549 = tested on: A549
SR = tested on: SR
LOX IMVI = tested on: LOX IMVI
HCT-15 = tested on: HCT-15
EKVX = tested on: EKVX
UACC-257 = tested on: UACC-257
M14 = tested on: M14
SK-MEL-5 = tested on: SK-MEL-5
COLO 205 = tested on: COLO 205
OVCAR-8 = tested on: OVCAR-8
HT-29 = tested on: HT-29
SNB-19 = tested on: SNB-19
HOP-62 = tested on: HOP-62
T47D = tested on: T47D
MDA-MB-231 = tested on: MDA-MB-231
CCRF-CEM = tested on: CCRF-CEM
786-0 = tested on: 786-0
HCT-116 = tested on: HCT-116
OVCAR-3 = tested on: OVCAR-3
UACC-62 = tested on: UACC-62
HOP-92 = tested on: HOP-92
MDA-N = tested on: MDA-N
NCI-H522 = tested on: NCI-H522
SK-MEL-2 = tested on: SK-MEL-2

CCCCCCCCCCCCCCCCCC(=O)OCC(COC1OC(COP(=O)(O)O)C(O)C(O)C1O)OC(=O)CCCCCCCCCCCCCCCCC (configuration not stated)
GI50 (KM12): 6.27 µM (inactive) | GI50 (CAKI-1): 9.73 µM (inactive) | GI50 (RXF 393): 8.95 µM (inactive) | GI50 (SF-539): 9.44 µM (inactive) | GI50 (RPMI-8226): 13.6 µM (inactive) | GI50 (K562): 9.89 µM (inactive) | GI50 (ACHN): 6.41 µM (inactive) | GI50 (SF-268): 8.97 µM (inactive) | GI50 (OVCAR-4): 7.41 µM (inactive) | GI50 (SW-620): 10.3 µM (inactive) | GI50 (U-251): 6.71 µM (inactive) | GI50 (NCI/ADR-RES): 9.33 µM (inactive) | GI50 (NCI-H226): 4.21 µM (inactive) | GI50 (MDA-MB-435): 9.71 µM (inactive) | GI50 (HCC 2998): 7.29 µM (inactive) | GI50 (MOLT-4): 7.5 µM (inactive) | GI50 (A498): 6.03 µM (inactive) | GI50 (MCF7): 8.38 µM (inactive) | GI50 (NCI-H23): 7.78 µM (inactive) | GI50 (TK-10): 10.4 µM (inactive) | GI50 (SK-OV-3): 8 µM (inactive) | GI50 (SN12C): 7 µM (inactive) | GI50 (PC-3): 7.62 µM (inactive) | GI50 (SNB-75): 4.63 µM (inactive) | GI50 (DU-145): 9.62 µM (inactive) | GI50 (IGROV-1): 4.02 µM (inactive) | GI50 (SK-MEL-28): 9.98 µM (inactive) | GI50 (Malme-3M): 7.52 µM (inactive) | GI50 (HL-60): 12.4 µM (inactive) | GI50 (NCI-H460): 11.7 µM (inactive) | GI50 (Hs-578T): 6.14 µM (inactive) | GI50 (OVCAR-5): 5.28 µM (inactive) | GI50 (SF-295): 4.02 µM (inactive) | GI50 (A549): 7.46 µM (inactive) | GI50 (SR): 0.0227 µM (active) | GI50 (LOX IMVI): 9.06 µM (inactive) | GI50 (HCT-15): 7.52 µM | GI50 (EKVX): 7.74 µM (inactive) | GI50 (UACC-257): 8.61 µM (inactive) | GI50 (M14): 9.14 µM (inactive) | GI50 (SK-MEL-5): 9.1 µM (inactive) | GI50 (COLO 205): 9.59 µM (inactive) | GI50 (OVCAR-8): 7.35 µM (inactive) | GI50 (HT-29): 5.32 µM (inactive) | GI50 (SNB-19): 8 µM (inactive) | GI50 (HOP-62): 8.26 µM (inactive) | GI50 (T47D): 11.9 µM (inactive) | GI50 (MDA-MB-231): 3.04 µM (inactive) | GI50 (CCRF-CEM): 4.95 µM (inactive) | GI50 (786-0): 7.94 µM (inactive) | GI50 (HCT-116): 8.83 µM (inactive) | GI50 (OVCAR-3): 8.87 µM (inactive) | GI50 (UACC-62): 8.57 µM (inactive) | GI50 (HOP-92): 4.14 µM (inactive) | GI50 (MDA-N): 10.7 µM (inactive)

COC1=CCC2=C(CCN(C(=O)C3CCC3)C2Cc2ccc(OC)c(O)c2)C1 (configuration not stated)
GI50 (KM12): 6.18 µM (inactive) | GI50 (CAKI-1): 30.6 µM (inactive) | GI50 (RXF 393): 4.68 µM (inactive) | GI50 (SF-539): 30.5 µM (inactive) | GI50 (RPMI-8226): 29.4 µM (inactive) | GI50 (K562): 4.45 µM (inactive) | GI50 (ACHN): 35.4 µM (inactive) | GI50 (SF-268): 33.1 µM (inactive) | GI50 (OVCAR-4): 23 µM (inactive) | GI50 (SW-620): 12.8 µM (inactive) | GI50 (U-251): 28.9 µM (inactive) | GI50 (NCI/ADR-RES): 9.82 µM (inactive) | GI50 (NCI-H226): 49.1 µM (inactive) | GI50 (MDA-MB-435): 3.09 µM (inactive) | GI50 (HCC 2998): 15.1 µM (inactive) | GI50 (MOLT-4): 12.7 µM (inactive) | GI50 (A498): 19.4 µM (inactive) | GI50 (MCF7): 7.14 µM (inactive) | GI50 (NCI-H23): 10 µM (inactive) | GI50 (TK-10): 17.5 µM (inactive) | GI50 (SK-OV-3): 20.5 µM (inactive) | GI50 (SN12C): 19.5 µM (inactive) | GI50 (PC-3): 23.6 µM (inactive) | GI50 (SNB-75): 10.7 µM (inactive) | GI50 (DU-145): 20.3 µM (inactive) | GI50 (IGROV-1): 26.8 µM (inactive) | GI50 (SK-MEL-28): 45.3 µM (inactive) | GI50 (Malme-3M): 26.6 µM (inactive) | GI50 (HL-60): 4.3 µM (inactive) | GI50 (NCI-H460): 12.2 µM (inactive) | GI50 (Hs-578T): 14.6 µM (inactive) | GI50 (OVCAR-5): 29.5 µM (inactive) | GI50 (SF-295): 15.9 µM (inactive) | GI50 (A549): 31.6 µM (inactive) | GI50 (SR): 5.69 µM (inactive) | GI50 (LOX IMVI): 36.6 µM (inactive) | GI50 (HCT-15): 4.85 µM | GI50 (EKVX): 25.7 µM (inactive) | GI50 (UACC-257): 17.3 µM (inactive) | GI50 (M14): 16.9 µM (inactive) | GI50 (SK-MEL-5): 8.34 µM (inactive) | GI50 (COLO 205): 16 µM (inactive) | GI50 (OVCAR-8): 37.2 µM (inactive) | GI50 (HT-29): 20.3 µM (inactive) | GI50 (SNB-19): 35.8 µM (inactive) | GI50 (HOP-62): 14.3 µM (inactive) | GI50 (T47D): 19.4 µM (inactive) | GI50 (MDA-MB-231): 21.1 µM (inactive) | GI50 (NCI-H522): 16.6 µM (inactive) | GI50 (CCRF-CEM): 21.8 µM (inactive) | GI50 (786-0): 18.2 µM (inactive) | GI50 (HCT-116): 11.9 µM (inactive) | GI50 (OVCAR-3): 5.93 µM (inactive) | GI50 (SK-MEL-2): 24.2 µM (inactive) | GI50 (UACC-62): 20.4 µM (inactive) | GI50 (HOP-92): 20.9 µM (inactive) | GI50 (MDA-N): 2.7 µM (inactive)
